Patent publication US20190275012A9, “SUBSTITUTED THIAZOLO-PYRIDINE COMPOUNDS AS MALT1 INHIBITORS” (Lupin Limited, priority 2016, published 2019)

Assays:
full length MALT1 enzyme = biological target: T1, full length MALT1 enzyme (Homo sapiens, UniProt Q9UDY8); assay: MALT1 biochemical assay (fluorescence based, Ac-Leu-Arg-Ser-Arg-AMC cleavage); settings: full length MALT1 protein, 2 h pre-incubation at RT, tetrapeptide substrate Ac-Leu-Arg-Ser-Arg-AMC, read-out: Malt 1 inhibition IC50
T1 construct: a fluorescence based assay with full length MALT1 enzyme
T1 sequence (Q9UDY8 1-824): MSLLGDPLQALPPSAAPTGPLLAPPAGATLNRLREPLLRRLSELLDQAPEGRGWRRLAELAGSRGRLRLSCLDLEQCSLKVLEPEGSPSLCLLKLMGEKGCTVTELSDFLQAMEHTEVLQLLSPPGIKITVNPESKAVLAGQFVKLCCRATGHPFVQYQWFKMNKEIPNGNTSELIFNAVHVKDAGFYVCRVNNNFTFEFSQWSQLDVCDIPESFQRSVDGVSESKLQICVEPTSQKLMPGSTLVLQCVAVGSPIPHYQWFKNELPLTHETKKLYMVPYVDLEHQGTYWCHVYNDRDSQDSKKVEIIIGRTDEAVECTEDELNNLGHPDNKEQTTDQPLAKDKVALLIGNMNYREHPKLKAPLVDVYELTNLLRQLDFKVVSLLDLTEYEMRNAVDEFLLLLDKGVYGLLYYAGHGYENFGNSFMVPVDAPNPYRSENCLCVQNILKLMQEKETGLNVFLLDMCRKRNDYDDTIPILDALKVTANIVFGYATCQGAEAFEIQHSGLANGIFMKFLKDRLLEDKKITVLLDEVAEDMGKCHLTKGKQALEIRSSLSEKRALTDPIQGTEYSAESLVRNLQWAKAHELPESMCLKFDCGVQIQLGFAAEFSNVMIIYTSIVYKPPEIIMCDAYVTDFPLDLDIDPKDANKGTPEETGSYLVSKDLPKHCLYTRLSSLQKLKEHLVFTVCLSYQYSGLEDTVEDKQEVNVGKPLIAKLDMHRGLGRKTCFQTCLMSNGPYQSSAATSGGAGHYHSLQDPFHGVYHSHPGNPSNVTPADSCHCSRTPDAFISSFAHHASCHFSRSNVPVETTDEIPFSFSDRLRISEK
Procedure: The biochemical potency of the MALT1 inhibitors was tested by using a fluorescence based assay with full length MALT1 enzyme. The assay principle makes use of the preferential cleavage by MALT1 after the Arginine residue. Thus, the substrate used is a tetrapeptide (Ac-Leu-Arg-Ser-Arg-AMC; Catalogue # SMAMC013, SM Biochemicals) which is cleaved by active MALT1 releasing the AMC which is fluorescent. Upon addition of the MALT1 protease inhibitors, the proteolytic activity (and accordingly AMC fluorescence) is reduced in a dose dependent manner. The kinetic characterization of the enzymatic reaction was measured by determining the Michaelis constant, Km, of the reaction (approximately 130=A/I). The assay buffer consisted of 50 mM MES, 150 mM NaCl, 0.1% w/v CHAPS, 1 M Ammonium citrate and 10 mM DTT (pH=7). The assay was established for the 384-well plate format using black microtiter square well plates (Optiplate 384-F, Perkin Elmer). The test compounds were dissolved in 100% DMSO at a stock concentration of 10 mM. Serial dilutions were made first in 100% DMSO. The final concentration of DMSO was 0.5% by wt.
For determining the extent of inhibition of MALT1 protease activity by MALT1 inhibitors, 10⇒| of the test compound solutions were pre-incubated with 10⇒| of MALT1 full length protein (100-300 ng protein/well) for 2 h at RT. This was followed by 10⇒| of substrate addition at a final concentration of 100⇒M for an additional 4-12 h. The increase in assay signal was linear over this period of time and proportional with increase in the enzyme content. The final concentrations of the test compounds typically ranged from 10000 nM to 0.03 nM in an alternate 3.16 and 3 serial dilutions. The positive control for the reaction contained enzyme and DMSO (without any test compound) and was considered to have 100% enzyme activity (0% inhibition) and the negative control containing only buffer and DMSO (without any enzyme) was considered to have no enzymatic activity (100% inhibition). The fluorescence was recorded in a Spectra Max plate reader, Molecular Devices, with a fluorescence excitation at 360 nm and emission recording at 460 nm. The fluorescence units were transformed to percentage inhibitions by using the positive and negative controls as references as per the following formula.
[formula] Positive control=Reaction containing enzyme+substrate+DMSO
Negative control=Reaction containing substrate+DMSO but no enzyme
The IC50 values of individual compounds were calculated with Non Linear Regression Analysis using Graph Pad Prism (Graph Pad software, Inc, USA).

[1] = test system: NF-kB transcriptional activity in HEK-293-NF-kB-Luc cell line overexpressing MALT1; assay: NF-kB reporter assay (luciferase, MALT1 stably overexpressed); format: cell-based; settings: Homo sapiens, 24 h, HEK-293-NF-kB-Luc cells stably overexpressing MALT1, 24 h treatment, Bright Glo luminescence; read-out: NF-kB inhibition IC50
Procedure: The NF-⇐B reporter assay was performed to screen for MALT1 inhibition mediated reduction in the NF-⇐B transcriptional activity. For this purpose, MALT1 was stably overexpressed in HEK-293—NF-⇐B-Luc cell line. Cells were seeded in poly-D-lysine coated 96-well plates in a culture medium containing the selection markers (DMEM+10% FBS+50 |g/ml Hygromycin+500 |g/ml Geniticin) and allowed to adhere overnight. On the following day, cells were treated with various concentrations of test compounds for 24 h. After 24 h of treatment with test compounds, media was removed from each well and Bright Glo™ (Promega, USA) substrate was added and incubated for further 10 min at ambient temperature. Luminescence was measured for detection of NF-⇐B reporter activity. RLUs (Relative Luminescence Units) were directly proportional to the NF-⇐B activity. % inhibition of NF-⇐B activity was calculated relative to the samples containing media with 0.1% DMSO alone as per the following formula

SMILES	IC50 (full length MALT1 enzyme)	IC50 [1]
Cc1nc2c(C3CC3)c(NC(=O)Nc3ccc(-n4ncnc4C)c(C#N)c3)cnc2s1 [Compound 172, 1-(3-Cyano-4-(5-methyl-1H-1,2,4-triazol-1-yl)phenyl)-3-(7-eyelopropyl-2-methylthiazolo[5,4-b]pyridin-6-yl)urea]	51 to 100 nM	501 to 1500 nM
CCc1nc2c(C3CC3)c(NC(=O)Nc3cnc(-n4nccn4)c(Cl)c3)cnc2s1 [Compound 31, 1-(5-Chloro-6-(2H-1,2,3-triazol-2-yl)pyridin-3-yl)-3-(7-cyclopropyl-2-ethylthiazolo[5,4-b]pyridin-6-yl)urea]	1 to 50 nM	101 to 500 nM
COc1ncc(NC(=O)Nc2cnc3sc(C)nc3c2N(C)C)cc1Cl [Compound 110, 1-(5-Chloro-6-methoxypyridin-3-yl)-3-(7-(dimethylamino)-2-methylthiazolo[5,4-b]pyridin-6-yl)urea]	51 to 100 nM	501 to 1500 nM
Cc1nc2c(C3CC3)c(NC(=O)Nc3cncc(C(F)(F)F)c3)cnc2s1 [Compound 7, 1-(7-Cyclopropyl-2-methylthiazolo[5,4-b]pyridin-6-yl)-3-(5-(trifluoromethyl)pyridin-3-yl)urea]	101 to 500 nM	101 to 500 nM
COC1CCN(c2c(NC(=O)Nc3cnc(-n4nccn4)c(Cl)c3)cnc3sc(C)nc23)CC1 [Compound 29, 1-(5-Chloro-6-(2H-1,2,3-triazol-2-yl)pyridin-3-yl)-3-(7-(4-methoxypiperidin-1-yl)-2-methylthiazolo[5,4-b]pyridin-6-yl)urea]	51 to 100 nM	101 to 500 nM
COC(c1ccccc1)c1c(NC(=O)Nc2cnc(-n3nccn3)c(Cl)c2)cnc2sc(C)nc12 (single isomer, unassigned) [Compound 84b, 1-(5-Chloro-6-(2H-1,2,3-triazol-2-yl)pyridin-3-yl)-3-(7-(methoxy(phenyl)methyl)-2-methylthiazolo[5,4-b]pyridin-6-yl)urea]	1 to 50 nM	1 to 100 nM
COC(C)c1c(NC(=O)Nc2cnc(-n3cnnn3)c(C(F)(F)F)c2)cnc2sc(C)nc12 (single isomer, unassigned) [Compound 239, (S or R)-1-(6-(1H-Tetrazol-1-yl)-5-(trifluoromethyl)pyridin-3-yl)-3-(7-(1-methoxyethyl)-2-methylthiazolo[5,4-b]pyridin-6-yl)urea]	1 to 50 nM	1 to 100 nM
CCOc1ncc(NC(=O)Nc2cnc3sc(C)nc3c2C2CC2)cc1Cl [Compound 4, 1-(5-Chloro-6-ethoxypyridin-3-yl)-3-(7-cyclopropyl-2-methylthiazolo[5,4-b]pyridin-6-yl)urea]	1 to 50 nM	501 to 1500 nM
COC(=O)c1cc(Cl)cc(NC(=O)Nc2cnc3sc(C)nc3c2C(C)OC)c1 (single isomer, unassigned) [Compound 152b, Methyl 3-chloro-5-(3-(7-(1-methoxyethyl)-2-methylthiazolo[5,4-b]pyridin-6-yl)ureido)benzoate]	1 to 50 nM	1 to 100 nM
Cc1nc2c(C3CC3)c(NC(=O)Nc3ccc(-n4ccnn4)c(Cl)c3)cnc2s1 [Compound 169, 1-(3-Chloro-4-(1H-1,2,3-triazol-1-yl)phenyl)-3-(7-cyclopropyl-2-methylthiazolo[5,4-b]pyridin-6-yl)urea]	1 to 50 nM	101 to 500 nM
COC(C)c1c(NC(=O)Nc2ccc(-n3ccnn3)c(Cl)c2)cnc2sc(C)nc12 (single isomer, unassigned) [Compound 198b, (S) or (R)-1-(3-Chloro-4-(1H-1,2,3-triazol-1-yl)phenyl)-3-(7-(1-methoxyethyl)-2-methylthiazolo[5,4-b]pyridin-6-yl)urea]	1 to 50 nM	1 to 100 nM
COC(C)(C)c1c(NC(=O)Nc2ccc(-n3nccn3)c(Cl)c2)cnc2sc(C)nc12 [Compound 98, 1-(3-Chloro-4-(2H-1,2,3-triazol-2-yl)phenyl)-3-(7-(2-methoxypropan-2-yl)-2-methylthiazolo[5,4-b]pyridin-6-yl)urea]	1 to 50 nM	1 to 100 nM
COC(CC1CC1)c1c(NC(=O)Nc2cnc(-n3nccn3)c(C(F)(F)F)c2)cnc2sc(C)nc12 (single isomer, unassigned) [Compound 240b, 1-(6-(2H-1,2,3-Triazol-2-yl)-5-(trifluoromethyl)pyridin-3-yl)-3-(7-(2-cyclopropyl-1-methoxyethyl)-2-methylthiazolo[5,4-b]pyridin-6-yl)urea]	1 to 50 nM	1 to 100 nM
Cc1nc2c(C3CC3)c(NC(=O)Nc3cnc(OCCC4CCN(C)CC4)c(Cl)c3)cnc2s1 [Compound 73, 1-(5-Chloro-6-(2-(1-methylpiperidin-4-yl)ethoxy)pyridin-3-yl)-3-(7-cyclopropyl-2-methylthiazolo[5,4-b]pyridin-6-yl)urea]	51 to 100 nM	101 to 500 nM
Cc1nc2c(N3CCCCC3)c(NC(=O)Nc3cnc(-n4nccn4)c(Cl)c3)cnc2s1 [Compound 40, 1-(5-Chloro-6-(2H-1,2,3-triazol-2-yl)pyridin-3-yl)-3-(2-methyl-7-(piperidin-1-yl)thiazolo[5,4-b]pyridin-6-yl)urea]	1 to 50 nM	1 to 100 nM
COCC1CCCN(c2c(NC(=O)Nc3cnc(-n4nccn4)c(Cl)c3)cnc3sc(C)nc23)C1 (racemic) [Compound 50, (ě)-1-(5-Chloro-6-(2H-1,2,3-triazol-2-yl)pyridin-3-yl)-3-(7-(3-(methoxymethyl)piperidin-1-yl)-2-methylthiazolo[5,4-b]pyridin-6-yl)urea]	1 to 50 nM	101 to 500 nM
COC(C)c1c(NC(=O)Nc2ccc(-c3cnco3)c(Cl)c2)cnc2sc(C)nc12 (single isomer, unassigned) [Compound 204, (S) or (R)-1-(3-Chloro-4-(oxazol-5-yl)phenyl)-3-(7-(1-methoxyethyl)-2-methylthiazolo[5,4-b]pyridin-6-yl)urea]	101 to 500 nM	101 to 500 nM
COC1CCCN(c2c(NC(=O)Nc3cnc(-n4nccn4)c(Cl)c3)cnc3sc(C)nc23)C1 (racemic) [Compound 52, (ě)-1-(5-Chloro-6-(2H-1,2,3-triazol-2-yl)pyridin-3-yl)-3-(7-(3-methoxypiperidin-1-yl)-2-methylthiazolo[5,4-b]pyridin-6-yl)urea]	1 to 50 nM	101 to 500 nM
